Data: PubChem BioAssay AID330 (DTP/NCI, 2004)
Values joined by “and” are separate entries in the source; they are usually repeats but may differ in a detail not shown here. Equal entries are not always repeated. Toxic doses and inconclusive results are not listed. How the source made its calls: active means survival T/C of 150% or more; inactive means T/C below 125% in these data.

System: P388 leukemia ip, CD2F1 mice, survival T/C
Assay: NCI In Vivo Anticancer Drug Screen. Data for tumor model P388 Leukemia (intraperitoneal) in CD2F1 (CDF1) mice
Conditions: endpoint: median survival time, higher = longer survival
Method in brief: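 Mice carrying the transplanted tumor received test compound or vehicle. Survival was recorded in each group, and the value is the treated-group measurement divided by that of the vehicle-treated control group.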

[1] = dose: 60.0 mg/kg/injection, schedule: Q01DX005 (ip), vehicle: saline
[2] = dose: 120.0 mg/kg/injection, schedule: Q01DX005 (ip), vehicle: saline
[3] = dose: 240.0 mg/kg/injection, schedule: Q01DX005 (ip), vehicle: saline
[4] = dose: 60.0 mg/kg/injection, schedule: Q01DX005 (ip), vehicle: saline with Tween-80
[5] = dose: 120.0 mg/kg/injection, schedule: Q01DX005 (ip), vehicle: saline with Tween-80
[6] = dose: 240.0 mg/kg/injection, schedule: Q01DX005 (ip), vehicle: saline with Tween-80
[7] = dose: 50.0 mg/kg/injection, schedule: Q01DX005 (ip), vehicle: Klucel (hydroxypropylcellulose) (HPC)
[8] = dose: 100.0 mg/kg/injection, schedule: Q01DX005 (ip), vehicle: Klucel (hydroxypropylcellulose) (HPC)
[9] = dose: 200.0 mg/kg/injection, schedule: Q01DX005 (ip), vehicle: Klucel (hydroxypropylcellulose) (HPC)
[10] = dose: 12.5 mg/kg/injection, schedule: Q04DX003 (ip), vehicle: saline with Tween-80
[11] = dose: 25.0 mg/kg/injection, schedule: Q04DX003 (ip), vehicle: saline with Tween-80
[12] = dose: 50.0 mg/kg/injection, schedule: Q04DX003 (ip), vehicle: saline with Tween-80
[13] = dose: 50.0 mg/kg/injection, schedule: Q01DX009 (ip), vehicle: other
[14] = dose: 100.0 mg/kg/injection, schedule: Q01DX009 (ip), vehicle: other
[15] = dose: 25.0 mg/kg/injection, schedule: Q01DX009 (ip), vehicle: Klucel (hydroxypropylcellulose) (HPC)
[16] = dose: 50.0 mg/kg/injection, schedule: Q01DX009 (ip), vehicle: Klucel (hydroxypropylcellulose) (HPC)
[17] = dose: 100.0 mg/kg/injection, schedule: Q01DX009 (ip), vehicle: Klucel (hydroxypropylcellulose) (HPC)
[18] = dose: 200.0 mg/kg/injection, schedule: Q01DX009 (ip), vehicle: Klucel (hydroxypropylcellulose) (HPC)
[19] = dose: 50.0 mg/kg/injection, schedule: Q01DX009 (ip), vehicle: saline
[20] = dose: 100.0 mg/kg/injection, schedule: Q01DX009 (ip), vehicle: saline
[21] = dose: 200.0 mg/kg/injection, schedule: Q01DX009 (ip), vehicle: saline

Measured: T/C

COC1C(C(=O)CS(=O)Cc2ccccc2)OC2OC(C)(C)OC21 (centres undefined)
inactive: [1] 104 % of control and 98 % of control | [2] 103 % of control | [3] 106 % of control and 108 % of control

C#CC(C)(C)Oc1ccc2c(=O)c(-c3ccc(OC)c(OC)c3)coc2c1
inactive: [4] 90 % of control | [5] 92 % of control | [6] 89 % of control

N=C(N)Sc1ccc([N+](=O)[O-])cc1Cl
inactive: [7] 104 % of control | [8] 104 % of control | [9] 101 % of control

CC1=C(N(C)C)C(=O)N(c2ccccc2)CN1C
inactive: dose: 3.75 mg/kg/injection, schedule: Q01DX005 (ip), vehicle: saline with Tween-80 111 % of control | dose: 7.5 mg/kg/injection, schedule: Q01DX005 (ip), vehicle: saline with Tween-80 102 % of control | dose: 15.0 mg/kg/injection, schedule: Q01DX005 (ip), vehicle: saline with Tween-80 101 % of control and 103 % of control

CCOC(=O)CC1(C)C(=O)CCCC1=O
inactive: dose: 100.0 mg/kg/injection, schedule: Q04DX003 (ip), vehicle: saline 101 % of control | dose: 200.0 mg/kg/injection, schedule: Q04DX003 (ip), vehicle: saline 100 % of control | dose: 400.0 mg/kg/injection, schedule: Q04DX003 (ip), vehicle: saline 100 % of control

CCCC1(c2ccccc2)CC(=O)NC1=O (centres undefined)
inactive: [1] 98 % of control | [2] 98 % of control | [3] 102 % of control

NC(=O)N/N=C1\C(=O)N(c2ccc(S(N)(=O)=O)cc2)C(=O)C1C(=O)Nc1ccc(S(N)(=O)=O)cc1 (centres undefined)
inactive: [1] 106 % of control | [2] 102 % of control | [3] 102 % of control

c1cc2c(c(NC3=NCCCO3)c1)CCCC2
inactive: [10] 108 % of control | [11] 108 % of control | [12] 100 % of control

CN(C)P1(=O)NCC(C)(C)CO1 (centres undefined)
inactive: dose: 50.0 mg/kg/injection, schedule: Q01DX005 (ip), vehicle: saline 104 % of control | dose: 100.0 mg/kg/injection, schedule: Q01DX005 (ip), vehicle: saline 96 % of control | dose: 200.0 mg/kg/injection, schedule: Q01DX005 (ip), vehicle: saline 96 % of control

Nc1cc2c(cc1C(=O)N1CCc3ccccc31)OCO2
inactive: dose: 25.0 mg/kg/injection, schedule: Q01DX009 (ip), vehicle: other 106 % of control | [13] 100 % of control | [14] 97 % of control | dose: 200.0 mg/kg/injection, schedule: Q01DX009 (ip), vehicle: other 90 % of control

CC(C)N1C(C)(C)C1(C)C#N (centres undefined)
inactive: [1] 100 % of control | [2] 104 % of control

NC(=S)NNCCC(=O)Nc1ccccc1C(F)(F)F
inactive: [4] 94 % of control | [5] 94 % of control | [6] 96 % of control

S=C(S)N1CCCCCC1
inactive: dose: 60.0 mg/kg/injection, schedule: Q01DX005 (ip), vehicle: suspension in saline 97 % of control | dose: 120.0 mg/kg/injection, schedule: Q01DX005 (ip), vehicle: suspension in saline 95 % of control

CCn1c2ccccc2c2c3c(NCCCN(C)C)cc(C)nc3ccc21
inactive: dose: 5.5 mg/kg/injection, schedule: Q01DX009 (ip), vehicle: suspension in saline 93 % of control | dose: 11.0 mg/kg/injection, schedule: Q01DX009 (ip), vehicle: suspension in saline 97 % of control | dose: 22.0 mg/kg/injection, schedule: Q01DX009 (ip), vehicle: suspension in saline 97 % of control

CC1=C(CC/C(C)=C/CC[C@@]2(C)CC[C@H](C(C)C(=O)O)OO2)C(C)(C)CCC1 (some centres undefined)
inactive: dose: 4.38 mg/kg/injection, schedule: Q01DX005 (ip), vehicle: saline + Tween-80 + alcohol 97 % of control | dose: 8.75 mg/kg/injection, schedule: Q01DX005 (ip), vehicle: saline + Tween-80 + alcohol 102 % of control | dose: 17.5 mg/kg/injection, schedule: Q01DX005 (ip), vehicle: saline + Tween-80 + alcohol 94 % of control | dose: 35.0 mg/kg/injection, schedule: Q01DX005 (ip), vehicle: saline + Tween-80 + alcohol 94 % of control

Cc1ccc(S(=O)(=O)C(CCS(C)(=O)=O)C(=O)c2ccccc2)cc1 (centres undefined)
inactive: [4] 100 % of control and 93 % of control | [5] 92 % of control | [6] 88 % of control and 90 % of control and 91 % of control

O=C(NNc1nc(CCl)cs1)c1ccccc1Cl
inactive: dose: 12.5 mg/kg/injection, schedule: Q01DX009 (ip), vehicle: Klucel (hydroxypropylcellulose) (HPC) 106 % of control | [15] 103 % of control and 111 % of control | [16] 103 % of control and 113 % of control | [17] 103 % of control and 107 % of control | [18] 94 % of control

O=C1c2ccccc2C(=O)N1OCc1cccc(C(F)(F)F)c1
inactive: [7] 98 % of control | [8] 90 % of control | [9] 86 % of control

CC(C)(C)OC(=O)NCCCCC(NC(=O)OC(C)(C)C)C(=O)O (centres undefined)
inactive: dose: 50.0 mg/kg/injection, schedule: Q01DX009 (ip), vehicle: saline with Tween-80 102 % of control | dose: 100.0 mg/kg/injection, schedule: Q01DX009 (ip), vehicle: saline with Tween-80 101 % of control | dose: 200.0 mg/kg/injection, schedule: Q01DX009 (ip), vehicle: saline with Tween-80 92 % of control

C/C(=N\N=C(\[Se])N(C)C)c1ccccn1
inactive: [10] 106 % of control | [11] 106 % of control | [12] 106 % of control

FC(F)(F)S.[Ag]
inactive: dose: 12.5 mg/kg/injection, schedule: Q01DX009 (ip), vehicle: saline with Tween-80 107 % of control | dose: 25.0 mg/kg/injection, schedule: Q01DX009 (ip), vehicle: saline with Tween-80 116 % of control

Cc1cc(C)cc(N(C2=NCCS2)C2=NCCS2)c1
inactive: [15] 106 % of control | [16] 101 % of control | [17] 99 % of control | [18] 104 % of control

COc1cccc(N=Nc2c(-c3ccccc3)nn(C(N)=S)c2-c2ccccc2)c1
inactive: dose: 100.0 mg/kg/injection, schedule: Q04DX002 (ip), vehicle: saline with Tween-80 98 % of control | dose: 200.0 mg/kg/injection, schedule: Q04DX002 (ip), vehicle: saline with Tween-80 95 % of control | dose: 400.0 mg/kg/injection, schedule: Q04DX002 (ip), vehicle: saline with Tween-80 88 % of control

CN(C)C1C(O)C2Oc3c(cc(O)c4c3C(=O)c3cc5c(c(O)c3C4=O)C(N)CC(C)(O)C5)C(C)(O2)C1O (centres undefined)
inactive: dose: 5.0 mg/kg/injection, schedule: Q01DX009 (ip), vehicle: other 118 % of control

Clc1ccnc2ccc3ccccc3c12
inactive: [19] 107 % of control | [20] 100 % of control and 101 % of control | [21] 100 % of control and 92 % of control

CC(=O)N(CCCN1C(=O)c2ccccc2C1=O)c1ccc2c(c1)c(-c1ccccc1)nc1cc([N+](=O)[O-])ccc12
inactive: dose: 3.13 mg/kg/injection, schedule: Q01DX009 (ip), vehicle: other 98 % of control | dose: 6.25 mg/kg/injection, schedule: Q01DX009 (ip), vehicle: other 95 % of control | dose: 12.5 mg/kg/injection, schedule: Q01DX009 (ip), vehicle: other 87 % of control | [13] 106 % of control | [14] 96 % of control

CCCCNC(=O)C(c1ccccc1)c1ccccc1
inactive: [16] 99 % of control | [17] 106 % of control | [18] 100 % of control

Cc1cc(=O)n(-c2ccccc2)c(=O)[nH]1
inactive: [19] 104 % of control | [20] 111 % of control | [21] 111 % of control

CC(C)(O)C1CCCCC1Cl (centres undefined)
inactive: dose: 50.0 mg/kg/injection, schedule: Q01DX005 (ip), vehicle: saline with Tween-80 104 % of control | dose: 100.0 mg/kg/injection, schedule: Q01DX005 (ip), vehicle: saline with Tween-80 107 % of control | dose: 200.0 mg/kg/injection, schedule: Q01DX005 (ip), vehicle: saline with Tween-80 104 % of control
